Assays:
HRP [1] = target: T1, HRP (Armoracia rusticana, UniProt P00433); assay: Enhanced CARD detection using biotinyl tyramide on human prostate tissue slides; type: biochemical, horseradish; conditions: enhancer at 20:1 (w/w) plus NaCl 2M, Streptavidin-HRP/diaminobenzidine readout
T1 sequence (P00433 31-338): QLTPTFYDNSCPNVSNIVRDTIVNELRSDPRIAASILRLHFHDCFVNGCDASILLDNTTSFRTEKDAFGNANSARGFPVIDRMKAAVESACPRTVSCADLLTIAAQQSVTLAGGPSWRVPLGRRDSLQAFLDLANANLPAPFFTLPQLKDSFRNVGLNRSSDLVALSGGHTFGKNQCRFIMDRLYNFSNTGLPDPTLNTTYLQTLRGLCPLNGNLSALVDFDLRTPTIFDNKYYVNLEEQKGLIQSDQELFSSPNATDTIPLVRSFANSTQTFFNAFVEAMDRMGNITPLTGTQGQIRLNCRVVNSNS
Experimental: Human prostate tissue slides (Dako) were deparaffinized and blocked for thirty minutes with TNB Blocking Buffer (TSA Indirect kit, NEN Life Science Products). Rabbit anti-human prostate specific antigen (Dako) diluted 1/100,000 in TNB buffer was incubated for one hour at room temperature. The slides were washed in TNT buffer (TSA Indirect kit) and then incubated with an anti-rabbit IgG-HRP conjugate (Roche) diluted 1/1000 in TNB buffer for one hour at room temperature.
Standard CARD detection was performed using the TSA Indirect kit, which utilizes biotinyl tyramide. Organic and salt enhanced CARD detection was performed using the TSA Indirect kit, adding N-(5-hydroxypentyl)-3-(p-hydroxyphcnyl)propionamide (structure 1) at a 20:1 (w/w) ratio to the biotinyl tyramide reagent and adding NaCl to the diluent to a final concentration of 2M. The slides were washed in TNT buffer, and Streptavidin-HRP (TSA Indirect kit) diluted 1/100 in TNB buffer was incubated for thirty minutes at room temperature. The slides were washed in TNT buffer and diaminobenzidine (NEN Life Science Products) was added and incubated for three minutes at room temperature. The slides were washed with water, and counterstained with Hematoxylin. The slides were then washed with water, phosphate buffered saline, water, dehydrated and mounted.

HRP [2] = target: T1, HRP; conditions: cited from earlier work
HRP [3] = target: T1, HRP; assay: Enhanced CARD detection using fluorescein tyramide on human prostate tissue slides; type: biochemical, horseradish
Experimental: Human prostate tissue slides (Dako) were deparaffinized and blocked for thirty minutes with TNB Blocking Buffer (TSA Direct Green kit, NEN Life Science Products). Rabbit anti-human prostate specific antigen (Dako) diluted 1/10,000 in TNB buffer was incubated for one hour at room temperature. The slides were washed in TNT buffer (TSA Direct Green kit) and then incubated with an anti-rabbit IgG-HRP conjugate (Roche) diluted 1/1000 in TNB buffer for one hour at room temperature. Standard CARD detection was performed using the TSA Direct Green kit, which utilizes fluorescein tyramide. Organic enhanced CARD detection was performed using the TSA Direct Green kit and adding p-iodophenyl boronic acid (structure 2) at a 20:1 (w/w) ratio to the fluorescein tyramide reagent. Organic and salt enhanced CARD detection was performed using the TSA Direct Green kit, adding p-iodophenyl boronic acid (structure 2) at a 20:1 (w/w) ratio to the fluorescein tyramide reagent and adding NaCl to the diluent to a final concentration of 2M. The slides were washed in TNT buffer, mounted with mounting medium and a coverslip.

HRP [4] = target: T1, HRP; assay: Enhanced CARD detection using cyanine 3 tyramide on human prostate tissue slides; type: biochemical, horseradish
Experimental: Human prostate tissue slides (Dako Corp., Carpinteria, Calif.) were deparaffinized and blocked for thirty minutes with TNB Blocking Buffer (TSA Direct Cyanine 3 kit, NEN Life Science Products, Boston, Mass.). Rabbit anti-human prostate specific antigen (Dako) diluted 1/40,000 in TNB buffer was incubated for one hour at room temperature. The slides were washed in TNT buffer (TSA Direct Cyanine 3 kit) and then incubated with an anti-rabbit IgG-HRP conjugate (Roche Molecular Biochemicals, Indianapolis, Ind.) diluted 1/1000 in TNB buffer for one hour at room temperature. Standard CARD detection was performed using the TSA Direct Cyanine 3 kit. Organic enhanced CARD detection was performed using the TSA Direct Cyanine 3 kit and adding p-iodophenyl boronic acid (structure 2) at a 20:1 (w/w) ratio to the cyanine 3 tyramide reagent. Organic and salt enhanced CARD detection was performed using the TSA Direct Cyanine 3 kit, adding p-iodophenyl boronic acid (structure 2) at a 20:1 (w/w) ratio to the cyanine 3 tyramide reagent and adding NaCl to the diluent to a final concentration of 2M. The slides were washed in TNT buffer, mounted with mounting medium and a coverslip.

[5] = NaCl 2M in diluent added to p-iodophenyl boronic acid 20:1 (w/w)
[6] = enhancer at 20:1 (w/w) ratio to tyramide reagent

Compound: O=C(CCc1ccc(O)cc1)NCCCCCO [N-(5-hydroxypentyl)-3-(p-hydroxyphcnyl)propionamide]
- organic and salt enhanced vs standard CARD detection (FIG. 3A compared to FIG. 3B) (HRP [1]): striking difference

Compound: c1c[nH]cn1 [imidazole]
- effect on the oxidation of 4-chloro-1-naphthol (HRP [2]; substrate 4-chloro-1-naphthol): no effect
- enhancement of the oxidation of p-phenylenediamine-pyrocatechol (HRP [2]; substrate combination p-phenylenediamine-pyrocatechol): two fold
- enhancement of the oxidation of diaminobenzidine (HRP [2]; substrate diaminobenzidine): approximately four fold

Compound: [Cl-].[Na+] [NaCl]
- addition of salt to the organic enhanced CARD detection (FIG. 2B compared to FIG. 2C) (HRP [3]; [5]): very dramatic improvement
- addition of salt to the organic enhanced CARD detection (FIG. 1B compared to FIG. 1C) (HRP [4]; [5]): significant improvement

Compound: OB(O)c1ccc(I)cc1 [p-iodophenyl boronic acid]
- organic enhanced vs standard CARD detection (FIG. 2A compared to FIG. 2B) (HRP [3]; [6]): significant difference
- organic enhanced vs standard CARD detection (FIG. 1A compared to FIG. 1B) (HRP [4]; [6]): very dramatic difference

— patent US6372937B1, “Enhanced catalyzed reporter deposition” (priority 1998, dated 2002)
